Key:
Type in all cases: physicochemical
[1] = Qualitative solubility in representative organic solvents; settings: for solubility in CH2Cl2: CH2Cl2, qualitative; for solubility in dimethylformamide / solubility in ethanol / solubility in hexanes / solubility in toluene: qualitative
[2] = Chemical stability (air, chromatography)
[3] = Salt concentration in polar and nonpolar solvents (Table 2)
[4] = Concentration of salt in solution, gel and film; settings: Tween 80 21.6 mg
Text: The identification of water soluble phthalocyanine salts also makes possible the preparation of aqueous gel formulations of phthalocyanine salts. […] These phthalocyanine salt-containing gels provide gel formulations of phthalocyanine salts suitable for topical use. Thin films of the gels can also be dried to form coherent, stable, water-swellable films. These films provide formulations for phthalocyanine salt-containing patches that can be used for topical administration.

Substance	solubility in CH2Cl2 [1]	solubility in dimethylformamide [1]	solubility in ethanol [1]	solubility in hexanes [1]	solubility in toluene [1]	time of hydrolysis by air to Pc 4 [2] [h]	salt concentration, […] aqueous Tween 80 ([3]; […] aqueous Tween 80) [mM]	solubility in aqueous solution ([3]; aqueous solution, in words)	salt concentration, hexanes ([3]; hexanes) [mM]	solubility in hexanes and mineral oil ([3]; hexanes, mineral oil (Nujol), in words)	salt concentration, mineral oil ([3]; mineral oil) [mM]	product conc ([4]; film: Pc 4 0.33 mg, HEC 118 mg) [%]	product conc ([4]; gel: Pc 4 0.33 mg, H2O 3.0 mL, HEC 118 mg) [%]	product conc ([4]; solution: Pc 4 0.33 mg, H2O 3.0 mL) [mg/mL]	stability on chromatography ([2]; Biobeads S-X3, CH2Cl2)
[CH3C(O)C(O)OSiPcOSi(CH3)2(CH2)3NH(CH3)2]^+Cl^− [Compound 29]	soluble	soluble	soluble	insoluble	moderately soluble	≤ 2	–	–	–	–	–	–	–	–	–
[ClSiPcOSi(CH3)2(CH2)3NH(CH3)2]^+Cl^− [Compound 28]	soluble	soluble	soluble	insoluble	moderately soluble	≤ 0.5	–	–	–	–	–	–	–	–	–
[HOSiPcOSi(CH3)2(CH2)3NH(CH2)21]^+[OC(O)CHOHCH2C(O)OH]^− [Compound 6]	soluble	soluble	soluble	insoluble	moderately soluble	–	0.165	show solubility	0.0006	little	0.0002	~0.2	~0.01	0.11	–
[HOSiPcOSi(CH3)2(CH2)3NH(CH3)2]^+[(HOC(O)(CH2)10Si(CH3)2)(Si(CH3)2O)˜120(Si(CH3)2(CH2)10C(O)O]^− [Compound 16]	soluble	soluble	soluble	insoluble	moderately soluble	–	–	–	–	–	–	–	–	–	decomposed to Pc 4 and the carboxysiloxane

Reference: patent US8440641B2, “Phthalocyanine salt formulations” (Case Western Reserve University, priority 2009, dated 2013)
